Experiment: moisture sorption (Dynamic Vapor Sorption), water content versus relative humidity
Type: physicochemical
Description: The moisture sorption isotherms were recorded with a SPS-11 moisture sorption analyzer (MD Messtechnik, Ulm, D). […] The equilibrium condition for each step was set to a mass constancy of ±0.005% over 60 min. The temperature was 25±0.1° C.

**Q.** What does the source list for CCC[C@H](NC(=O)[C@@H]1[C@H]2CCC[C@H]2CN1C(=O)[C@@H](NC(=O)[C@@H](NC(=O)c1cnccn1)C1CCCCC1)C(C)(C)C)C(=O)C(=O)NC1CC1 [Form C, (1S,3aR,6aS)-2-[(2S)-2-[[(2S)-2-Cyclohexyl-2-(pyrazine-2-carbonylamino)acetyl]amino]-3,3-dimethylbutanoyl]-N-[(3S)-1-(cyclopropylamino)-1,2-dioxohexan-3-yl]-3,3a,4,5,6,6a-hexahydro-1H-cyclopenta[c]pyrrole-1-carboxamide]?
**A.** water content (relative humidity of about 40%): about 0.5 moles of water; water content (relative humidity of about 70%-80%): about 0.9 moles of water

Reference: patent US20160039871A1, “NOVEL FORMS OF TELAPREVIR” (SANDOZ AG, priority 2012, published 2016)
